Data published in article PMC2527810, “[^18F]FDG and [^18F]FLT uptake in human breast cancer cells in relation to the effects of chemotherapy: an in vitro study” (British Journal of Cancer, 2008).

Key:
[1] = molecular target: T1, recombinant cytosolic TK-1 (Homo sapiens, UniProt P04183); assay: Phosphorylation of [CH3-3H]dThd by recombinant TK-1; assay type: biochemical
T1 sequence (P04183 1-234): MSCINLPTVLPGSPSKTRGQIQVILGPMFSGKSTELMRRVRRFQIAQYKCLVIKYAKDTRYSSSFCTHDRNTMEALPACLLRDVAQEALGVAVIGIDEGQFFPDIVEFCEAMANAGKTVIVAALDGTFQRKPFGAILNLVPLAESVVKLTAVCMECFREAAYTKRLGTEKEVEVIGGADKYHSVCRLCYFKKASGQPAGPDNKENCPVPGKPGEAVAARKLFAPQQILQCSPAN
Protocol: (§1) A 50 μl reaction mixture, containing 50 mM Tris-HCl, pH 8.0, 2.5 mM MgCl2, 10 mM dithiothreitol, 2.5 mM ATP, 1.0 mg ml^−1 bovine serum albumin, 10 mM NaF, [CH3-^3H]dThd (0.1 μCi in 5 μl; 1 μM final concentration) and 5 μl of recombinant enzyme, was incubated at 37°C for 30 min in the presence or absence of different concentrations of dCTP or KIN52.

[2] = molecular target: T2, purified TK-2 (Homo sapiens, UniProt O00142); assay: FLT phosphorylation by purified TK-2; assay type: biochemical
T2 construct: gift: A. Karlsson, Karolinska Institute, Stockholm, Sweden
T2 sequence (O00142 34-265): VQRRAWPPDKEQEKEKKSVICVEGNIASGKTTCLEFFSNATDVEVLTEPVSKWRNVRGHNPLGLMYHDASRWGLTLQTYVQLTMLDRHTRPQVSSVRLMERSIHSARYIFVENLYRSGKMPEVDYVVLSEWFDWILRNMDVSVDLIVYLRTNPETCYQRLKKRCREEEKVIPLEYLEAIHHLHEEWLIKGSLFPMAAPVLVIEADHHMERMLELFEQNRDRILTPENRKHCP
Protocol: (§2) 3′-deoxy-3′-[^18F]fluorothymidine was diluted with 50 mM Tris/1 mM EDTA (pH 7.4) and 1 : 1 mixed with 20 mM ATP, 10 mM MgCl2, resulting in an FLT concentration of about 60 MBq ml^−1 (6.32–18.89 pmol per sample). […] was inhibited by addition of dCTP or the specific TK-2 inhibitor KIN52 (final concentration 2 μM) ([Balzarini et al, 2003]).
(§3) The assay was optimised for protein concentration and incubation times. Diluted cell lysates or purified TK-2 (kindly provided by A. Karlsson, Karolinska Institute, Stockholm, Sweden) were incubated with the FLT mixture for 15 min at 37°C and the reaction was stopped by heating the samples at 95°C for 5 min. Substrate (FLT) and product (FLT-phosphate) were separated by TLC and radioactivity was measured in a single-well gamma counter (Wallac1480 Wizard, Perkin Elmer Lifescience, MA, USA). Protein concentrations were measured in a Bio-Rad Bradford protein assay (Bio-Rad Laboratories, Hercules, CA, USA). Thymidine kinase activity was calculated as the amount of FLT converted into FLT-phosphate per hour per million cells (nmol h^−1 10^−6 cells).

[3] = system: MDA MB231 cells; assay: Separation of cellular FLT and FLT-phosphate by TLC; assay type: cell-based, human; settings: one hour after adding FLT
Text: To discriminate between FLT and FLT-phosphate, cells in another identical plate were harvested and after stopping the enzyme reaction, cells were sonificated and spun down. 3′-deoxy-3′-[^18F]fluorothymidine and FLT-phosphate, present in the supernatant were separated as described above (section TK enzyme activity).

[4] = molecular target: T3, recombinant mitochondrial TK-2 (Homo sapiens, UniProt O00142); assay: Phosphorylation of [CH3-3H]dThd by recombinant TK-2; assay type: biochemical
T3 sequence (O00142 34-265): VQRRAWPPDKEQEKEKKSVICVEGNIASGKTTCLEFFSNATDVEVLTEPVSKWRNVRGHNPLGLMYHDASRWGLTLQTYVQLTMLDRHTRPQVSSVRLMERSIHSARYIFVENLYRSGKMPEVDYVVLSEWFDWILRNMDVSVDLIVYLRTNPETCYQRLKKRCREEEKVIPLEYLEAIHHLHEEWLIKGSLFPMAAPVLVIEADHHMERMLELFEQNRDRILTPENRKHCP
Protocol: as §1, with “[…] A 50” for “A 50”, “or KIN52. During this time, the enzyme reaction proceeded linearly. Formation of tritiated dTMP was measured by spotting aliquots of the reaction mixture on Whatman DE-81 filter paper disks, as described earlier ([Balzarini et al, 2003]).” for “or KIN52.”

[5] = system: cellular TK activities (MDA MB231 cell lysates); assay: Inhibition of cellular TK activity by TK-2 inhibitors added to cell lysates; assay type: biochemical, human; settings: dCTP 10 μM added to cell lysates
Protocol: Cell pellets were suspended in 50 mM Tris/1 mM EDTA (pH 7.4) and sonificated on ice. Lysates were spun down and supernatant diluted 1 : 8 in 50 mM Tris/1 mM EDTA (pH 7.4).
as §2, §3

[6] = substrate: Cc1cn([C@H]2C[C@H](O)[C@@H](CO)O2)c(=O)[nH]c1=O; assay: Phosphorylation of [CH3-3H]dThd by recombinant TK-2; assay type: biochemical; settings: other: TK-2, Lineweaver–Burk; pH 8.0; 37.0 °C
Protocol: as §1, with “[…] A 50” for “A 50”, “or KIN52. During this time, the enzyme reaction proceeded linearly. Formation of tritiated dTMP was measured by spotting aliquots of the reaction mixture on Whatman DE-81 filter paper disks, as described earlier ([Balzarini et al, 2003]).” for “or KIN52.”

For `Cc1cn([C@H]2C[C@H]([18F])[C@@H](CO)O2)c(=O)[nH]c1=O` [FLT, 3′-deoxy-3′-[^18F]fluorothymidine], the Ki ([1]; TK-1, competitive vs dThd, read-out: Ki FLT) was 1.9 µM, the “conversion of FLT into FLT-phosphate” value ([2]; FLT added to purified TK-2) was 8% and the “cellular radioactivity as unphosphorylated FLT” value [3] was “less than 20%”. For the same molecule, the “cellular radioactivity counts due to FLT phosphate” value [3] was “more than 80%”, the Ki/Km ([4]; TK-2) was 3.2 and the Ki ([4]; TK-2, competitive vs dThd, read-out: Ki FLT) was 4.2 µM.

For `Nc1ccn([C@H]2C[C@H](O)[C@@H](COP(=O)(O)OP(=O)(O)OP(=O)(O)O)O2)c(=O)n1` [dCTP], the IC50 ([1]; TK-1, 1 μM [CH3-3H]dThd as substrate) was roughly 5 µM, the “inhibition of FLT phosphorylation by TK-2” value ([2]; dCTP 10 mM) was 97% and the “inhibition of cellular TK activities” value [5] was 55–90%. For the same molecule, the IC50 ([4]; TK-2, 1 μM [CH3-3H]dThd as substrate) was roughly 50 µM.

B1: recombinant mitochondrial TK-2 (Homo sapiens) (protein)
chain: VQRRAWPPDKEQEKEKKSVICVEGNIASGKTTCLEFFSNATDVEVLTEPVSKWRNVRGHNPLGLMYHDASRWGLTLQTYVQLTMLDRHTRPQVSSVRLMERSIHSARYIFVENLYRSGKMPEVDYVVLSEWFDWILRNMDVSVDLIVYLRTNPETCYQRLKKRCREEEKVIPLEYLEAIHHLHEEWLIKGSLFPMAAPVLVIEADHHMERMLELFEQNRDRILTPENRKHCP
B1 showed a Km [6] of 1.3 µM.
